Measurements from ChEMBL document CHEMBL1201861, “Genomics of Drug Sensitity in Cancer screening data, Wellcome Trust Sanger Institute”.

Key:
Assay in all cases: cells
Assay type in all cases: functional, cell-based, Homo sapiens
DMS-79 = details: Homo sapiens, DMS-79;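 also: growth inhibition measured with a cell viability assay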
Description: SANGER: Inhibition of human DMS-79 cell growth in a cell viability assay.

NCI-H209 = details: Homo sapiens, NCI-H209;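 also: growth inhibition of human NCI-H209 cells, measured by a cell viability assay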
Description: SANGER: Inhibition of human NCI-H209 cell growth in a cell viability assay.

KU812 cell line = details: Homo sapiens, KU812;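 also: growth inhibition of KU812 cells, read out with a cell viability assay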
Description: SANGER: Inhibition of human KU812 cell growth in a cell viability assay.

TGBC1TKB = details: Homo sapiens, TGBC1TKB;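 also: growth inhibition of TGBC1TKB cells, read out by a cell viability assay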
Description: SANGER: Inhibition of human TGBC1TKB cell growth in a cell viability assay.

JAR = details: Homo sapiens, JAR;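 also: growth inhibition of human JAR cells determined with a cell viability assay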
Description: SANGER: Inhibition of human JAR cell growth in a cell viability assay.

EC-GI-10 = details: Homo sapiens, EC-GI-10
Description: SANGER: Inhibition of human EC-GI-10 cell growth in a cell viability assay.

NCI-H720 = details: Homo sapiens, NCI-H720;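 also: growth inhibition of human NCI-H720 cells determined by a cell viability assay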
Description: SANGER: Inhibition of human NCI-H720 cell growth in a cell viability assay.

TE-8 = details: Homo sapiens, TE-8;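 also: growth inhibition of TE-8 cells, measured with a cell viability readout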
Description: SANGER: Inhibition of human TE-8 cell growth in a cell viability assay.

LAN-6 = details: Homo sapiens, LAN-6;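 also: growth inhibition of LAN-6 cells, determined with a cell viability assay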
Description: SANGER: Inhibition of human LAN-6 cell growth in a cell viability assay.

QIMR-WIL = details: Homo sapiens, QIMR-WIL;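 also: growth inhibition of QIMR-WIL cells, read out with a cell viability assay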
Description: SANGER: Inhibition of human QIMR-WIL cell growth in a cell viability assay.

NOS-1 = details: Homo sapiens, NOS-1;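 also: growth inhibition of the human NOS-1 cell line, read out with a cell viability assay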
Description: SANGER: Inhibition of human NOS-1 cell growth in a cell viability assay.

LNCaP-Clone-FGC = details: Homo sapiens, LNCaP-Clone-FGC
Description: SANGER: Inhibition of human LNCaP-Clone-FGC cell growth in a cell viability assay.

COLO-800 = details: Homo sapiens, COLO-800;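 also: growth inhibition of COLO-800 cells, read out with a cell viability assay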
Description: SANGER: Inhibition of human COLO-800 cell growth in a cell viability assay.

KE-37 = details: Homo sapiens, KE-37;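 also: growth inhibition of KE-37 cells, read out with a cell viability assay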
Description: SANGER: Inhibition of human KE-37 cell growth in a cell viability assay.

CTB-1 = details: Homo sapiens, CTB-1
Description: SANGER: Inhibition of human CTB-1 cell growth in a cell viability assay.

NTERA-2-cl-D1 = details: Homo sapiens, NTERA-2-cl-D1;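 also: inhibition of cell growth, measured with a cell viability assay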
Description: SANGER: Inhibition of human NTERA-S-cl-D1 cell growth in a cell viability assay.

ES1 = details: Homo sapiens, ES1;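 also: growth inhibition of ES1 cells, read out with a cell viability assay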
Description: SANGER: Inhibition of human ES1 cell growth in a cell viability assay.

LC-2-ad = details: Homo sapiens, LC-2-ad;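 also: growth inhibition of human LC-2-ad cells, read out with a cell viability assay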
Description: SANGER: Inhibition of human LC-2-ad cell growth in a cell viability assay.

HL-60 = details: Homo sapiens, HL-60;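 also: growth inhibition of human HL-60 cells, read out with a cell viability assay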
Description: SANGER: Inhibition of human HL-60 cell growth in a cell viability assay.

SF-126 = details: Homo sapiens, SF-126;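 also: growth inhibition of human SF126 cells, read out with a cell viability assay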
Description: SANGER: Inhibition of human SF126 cell growth in a cell viability assay.

COLO-320-HSR = details: Homo sapiens, COLO-320-HSR;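 also: growth inhibition of COLO-320-HSR cells, determined with a cell viability assay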
Description: SANGER: Inhibition of human COLO-320-HSR cell growth in a cell viability assay.

SW872 = details: Homo sapiens, SW872;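 also: growth inhibition of SW872 cells, read out by a viability assay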
Description: SANGER: Inhibition of human SW872 cell growth in a cell viability assay.

DEL = details: Homo sapiens, DEL;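 also: growth inhibition of the human DEL cell line, read out with a cell viability assay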
Description: SANGER: Inhibition of human DEL cell growth in a cell viability assay.

GAK = details: Homo sapiens, GAK;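 also: cell growth inhibition read out by a cell viability assay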
Description: SANGER: Inhibition of human GAK cell growth in a cell viability assay.

KARPAS-45 = details: Homo sapiens, KARPAS-45;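 also: inhibition of cell line growth, read out through a viability assay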
Description: SANGER: Inhibition of human KARPAS-45 cell growth in a cell viability assay.

ATN-1 = details: Homo sapiens, ATN-1;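 also: growth inhibition of human ATN-1 cells, read out with a cell viability assay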
Description: SANGER: Inhibition of human ATN-1 cell growth in a cell viability assay.

A498 = details: Homo sapiens, A498;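 also: growth inhibition of human A498 cells, read out with a cell viability assay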
Description: SANGER: Inhibition of human A498 cell growth in a cell viability assay.

LU-134-A = details: Homo sapiens, LU-134-A
Description: SANGER: Inhibition of human LU-134-A cell growth in a cell viability assay.

PSN1 = details: Homo sapiens, PSN1;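 also: suppression of growth of human PSN1 cells, read out by a cell viability assay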
Description: SANGER: Inhibition of human PSN1 cell growth in a cell viability assay.

GT3TKB = details: Homo sapiens, GT3TKB;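 also: growth inhibition of the cell line, read out with a cell viability assay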
Description: SANGER: Inhibition of human GT3TKB cell growth in a cell viability assay.

TE-10 = details: Homo sapiens, TE-10;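 also: growth inhibition of TE-10 cells, measured by a cell viability assay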
Description: SANGER: Inhibition of human TE-10 cell growth in a cell viability assay.

RPMI-8866 = details: Homo sapiens, RPMI-8866
Description: SANGER: Inhibition of human RPMI-8866 cell growth in a cell viability assay.

NH-12 = details: Homo sapiens, NH-12;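 also: growth inhibition of NH-12 cells, read out with a cell viability assay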
Description: SANGER: Inhibition of human NH-12 cell growth in a cell viability assay.

HEL = details: Homo sapiens, HEL;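 also: growth inhibition of HEL cells, read out with a cell viability assay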
Description: SANGER: Inhibition of human HEL cell growth in a cell viability assay.

K562 = details: Homo sapiens, K562
Description: SANGER: Inhibition of human K-562 cell growth in a cell viability assay.

SF-539 = details: Homo sapiens, SF-539;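 also: Read-out is a cell viability assay, with IC50 reflecting inhibition of cell growth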
Description: SANGER: Inhibition of human SF539 cell growth in a cell viability assay.

RH-1 = details: Homo sapiens, RH-1;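 also: growth inhibition of human RH-1 cells, read out with a cell viability assay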
Description: SANGER: Inhibition of human RH-1 cell growth in a cell viability assay.

EW-16 = details: Homo sapiens, EW-16;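 also: growth inhibition of human EW-16 cells, read out as cell viability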
Description: SANGER: Inhibition of human EW-16 cell growth in a cell viability assay.

A388 = details: Homo sapiens, A388;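 also: growth inhibition of human A388 cells, read out with a cell viability assay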
Description: SANGER: Inhibition of human A388 cell growth in a cell viability assay.

LS-513 = details: Homo sapiens, LS-513
Description: SANGER: Inhibition of human LS-513 cell growth in a cell viability assay.

LB373-MEL-D = details: Homo sapiens, LB373-MEL-D;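 also: growth inhibition of the cell line, read out in a cell viability assay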
Description: SANGER: Inhibition of human LB373-MEL-D cell growth in a cell viability assay.

CCRF-CEM = details: Homo sapiens, CCRF-CEM;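 also: inhibition of CCRF-CEM cell growth, measured by a cell viability assay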
Description: SANGER: Inhibition of human CCRF-CEM cell growth in a cell viability assay.

NCI-H226 = details: Homo sapiens, NCI-H226;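 also: cell viability read-out used to gauge growth inhibition of the cells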
Description: SANGER: Inhibition of human NCI-H226 cell growth in a cell viability assay.

SK-LMS-1 = details: Homo sapiens, SK-LMS-1;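 also: growth inhibition of human SK-LMS-1 cells, read out with a cell viability assay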
Description: SANGER: Inhibition of human SK-LMS-1 cell growth in a cell viability assay.

ALL-PO = details: Homo sapiens, ALL-PO;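 also: growth inhibition of ALL-PO cells, read out by a cell viability assay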
Description: SANGER: Inhibition of human ALL-PO cell growth in a cell viability assay.

P30-OHK = details: Homo sapiens, P30-OHK;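 also: growth inhibition of the P30-OHK cell line, read out with a cell viability assay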
Description: SANGER: Inhibition of human P30-OHK cell growth in a cell viability assay.

LB996-RCC = details: Homo sapiens, LB996-RCC
Description: SANGER: Inhibition of human LB996-RCC cell growth in a cell viability assay.

COLO-829 = details: Homo sapiens, COLO-829
Description: SANGER: Inhibition of human COLO-829 cell growth in a cell viability assay.

TE-5 = details: Homo sapiens, TE-5;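 also: inhibition of cell growth, read out by a cell viability assay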
Description: SANGER: Inhibition of human TE-5 cell growth in a cell viability assay.

COc1cc(N2CCN(C)CC2)ccc1Nc1ncc2c(n1)N(C)c1ccccc1C(=O)N2C
IC50 (DMS-79): > 8000 nM
IC50 (NCI-H209): > 8000 nM
IC50 (KU812 cell line): 7430 nM
IC50 (TGBC1TKB): > 8000 nM
IC50 (JAR): > 8000 nM
IC50 (EC-GI-10): > 8000 nM
IC50 (NCI-H720): > 8000 nM
IC50 (TE-8): > 8000 nM
IC50 (LAN-6): 7970 nM
IC50 (QIMR-WIL): 6320 nM
IC50 (NOS-1): 3570 nM
IC50 (LNCaP-Clone-FGC): > 8000 nM
IC50 (COLO-800): > 8000 nM
IC50 (KE-37): > 8000 nM
IC50 (CTB-1): 7520 nM
IC50 (NTERA-2-cl-D1): 4560 nM
IC50 (ES1): > 8000 nM
IC50 (LC-2-ad): > 8000 nM
IC50 (HL-60): 5140 nM
IC50 (SF-126): > 8000 nM
IC50 (COLO-320-HSR): > 8000 nM
IC50 (SW872): > 8000 nM
IC50 (DEL): > 8000 nM
IC50 (GAK): > 8000 nM
IC50 (KARPAS-45): 3970 nM
IC50 (ATN-1): > 8000 nM
IC50 (A498): > 8000 nM
IC50 (LU-134-A): > 8000 nM
IC50 (PSN1): > 8000 nM
IC50 (GT3TKB): > 8000 nM
IC50 (TE-10): 6890 nM
IC50 (RPMI-8866): > 8000 nM
IC50 (NH-12): > 8000 nM
IC50 (HEL): 5950 nM
IC50 (K562): > 8000 nM
IC50 (SF-539): > 8000 nM
IC50 (RH-1): > 8000 nM
IC50 (EW-16): > 8000 nM
IC50 (A388): 6570 nM
IC50 (LS-513): 5860 nM
IC50 (LB373-MEL-D): > 8000 nM
IC50 (CCRF-CEM): > 8000 nM
IC50 (NCI-H226): > 8000 nM
IC50 (SK-LMS-1): > 8000 nM
IC50 (ALL-PO): 5740 nM
IC50 (P30-OHK): > 8000 nM
IC50 (LB996-RCC): 5370 nM
IC50 (COLO-829): > 8000 nM
IC50 (TE-5): > 8000 nM

Cc1ccc(-c2c(C(=O)CCl)n(CCCO)c3ncnc(N)c23)cc1
IC50 (DMS-79): > 4000 nM
IC50 (NCI-H209): > 4000 nM
IC50 (KU812 cell line): > 4000 nM
IC50 (TGBC1TKB): > 4000 nM
IC50 (JAR): > 4000 nM
IC50 (EC-GI-10): > 4000 nM
IC50 (NCI-H720): > 4000 nM
IC50 (TE-8): 1970 nM
IC50 (LAN-6): > 4000 nM
IC50 (QIMR-WIL): > 4000 nM
IC50 (NOS-1): > 4000 nM
IC50 (LNCaP-Clone-FGC): > 4000 nM
IC50 (COLO-800): > 4000 nM
IC50 (KE-37): > 4000 nM
IC50 (CTB-1): 1620 nM
IC50 (NTERA-2-cl-D1): > 4000 nM
IC50 (ES1): > 4000 nM
IC50 (LC-2-ad): 2740 nM
IC50 (HL-60): > 4000 nM
IC50 (SF-126): > 4000 nM
IC50 (COLO-320-HSR): > 4000 nM
IC50 (SW872): > 4000 nM
IC50 (DEL): > 4000 nM
IC50 (GAK): > 4000 nM
IC50 (KARPAS-45): > 4000 nM
IC50 (ATN-1): > 4000 nM
IC50 (A498): > 4000 nM
IC50 (LU-134-A): > 4000 nM
IC50 (PSN1): 2770 nM
IC50 (GT3TKB): > 4000 nM
IC50 (TE-10): > 4000 nM
IC50 (RPMI-8866): > 4000 nM
IC50 (NH-12): > 4000 nM
IC50 (HEL): > 4000 nM
IC50 (K562): > 4000 nM
IC50 (SF-539): > 4000 nM
IC50 (RH-1): > 4000 nM
IC50 (EW-16): > 4000 nM
IC50 (A388): 2190 nM
IC50 (LS-513): > 4000 nM
IC50 (LB373-MEL-D): > 4000 nM
IC50 (CCRF-CEM): 2930 nM
IC50 (NCI-H226): > 4000 nM
IC50 (SK-LMS-1): 1400 nM
IC50 (ALL-PO): > 4000 nM
IC50 (P30-OHK): > 4000 nM
IC50 (LB996-RCC): > 4000 nM
IC50 (COLO-829): > 4000 nM
IC50 (TE-5): > 4000 nM

CCC/C=C/C=C/C(=O)O[C@H]1/C(=C/C(=O)OC)C[C@H]2C[C@H]([C@@H](C)O)OC(=O)C[C@H](O)C[C@@H]3C[C@H](OC(C)=O)C(C)(C)[C@](O)(C[C@@H]4C/C(=C/C(=O)OC)C[C@H](/C=C/C(C)(C)[C@]1(O)O2)O4)O3 [BRYOSTATIN 1]
IC50 (DMS-79): > 8 nM
IC50 (NCI-H209): > 8 nM
IC50 (KU812 cell line): > 8 nM
IC50 (TGBC1TKB): > 8 nM
IC50 (JAR): > 8 nM
IC50 (EC-GI-10): > 8 nM
IC50 (NCI-H720): > 8 nM
IC50 (TE-8): > 8 nM
IC50 (LAN-6): > 8 nM
IC50 (QIMR-WIL): > 8 nM
IC50 (NOS-1): > 8 nM
IC50 (LNCaP-Clone-FGC): > 8 nM
IC50 (COLO-800): > 8 nM
IC50 (KE-37): > 8 nM
IC50 (CTB-1): > 8 nM
IC50 (NTERA-2-cl-D1): > 8 nM
IC50 (ES1): > 8 nM
IC50 (LC-2-ad): > 8 nM
IC50 (HL-60): > 8 nM
IC50 (SF-126): > 8 nM
IC50 (COLO-320-HSR): > 8 nM
IC50 (SW872): > 8 nM
IC50 (DEL): > 8 nM
IC50 (GAK): > 8 nM
IC50 (KARPAS-45): > 8 nM
IC50 (ATN-1): > 8 nM
IC50 (A498): > 8 nM
IC50 (LU-134-A): > 8 nM
IC50 (PSN1): > 8 nM
IC50 (GT3TKB): > 8 nM
IC50 (TE-10): > 8 nM
IC50 (RPMI-8866): > 8 nM
IC50 (NH-12): > 8 nM
IC50 (HEL): > 8 nM
IC50 (K562): > 8 nM
IC50 (SF-539): > 8 nM
IC50 (RH-1): > 8 nM
IC50 (EW-16): > 8 nM
IC50 (A388): > 8 nM
IC50 (LS-513): > 8 nM
IC50 (LB373-MEL-D): > 8 nM
IC50 (CCRF-CEM): > 8 nM
IC50 (NCI-H226): > 8 nM
IC50 (SK-LMS-1): > 8 nM
IC50 (ALL-PO): > 8 nM
IC50 (P30-OHK): > 8 nM
IC50 (LB996-RCC): > 8 nM
IC50 (COLO-829): > 8 nM
IC50 (TE-5): > 8 nM

COc1cccc2c1C(=O)c1c(O)c3c(c(O)c1C2=O)C[C@@](O)(C(=O)CO)C[C@@H]3O[C@H]1C[C@H](N)[C@H](O)[C@H](C)O1 [DOXORUBICIN]
IC50 (DMS-79): > 1020 nM
IC50 (NCI-H209): 48.7 nM
IC50 (KU812 cell line): 33.2 nM
IC50 (TGBC1TKB): > 1020 nM
IC50 (JAR): 626 nM
IC50 (EC-GI-10): > 1020 nM
IC50 (NCI-H720): > 1020 nM
IC50 (TE-8): 7.5 nM
IC50 (LAN-6): 315 nM
IC50 (QIMR-WIL): 20.7 nM
IC50 (NOS-1): 79.1 nM
IC50 (LNCaP-Clone-FGC): 204 nM
IC50 (COLO-800): 172 nM
IC50 (KE-37): 21 nM
IC50 (CTB-1): 64.2 nM
IC50 (NTERA-2-cl-D1): 1.37 nM
IC50 (ES1): 13.7 nM
IC50 (LC-2-ad): 5.07 nM
IC50 (HL-60): 62.6 nM
IC50 (SF-126): 105 nM
IC50 (COLO-320-HSR): 513 nM
IC50 (SW872): 121 nM
IC50 (DEL): 38.4 nM
IC50 (GAK): 257 nM
IC50 (KARPAS-45): > 1020 nM
IC50 (ATN-1): 128 nM
IC50 (A498): > 1020 nM
IC50 (LU-134-A): 67.7 nM
IC50 (PSN1): 11.2 nM
IC50 (GT3TKB): 67.2 nM
IC50 (TE-10): 113 nM
IC50 (RPMI-8866): 192 nM
IC50 (NH-12): 76 nM
IC50 (HEL): 175 nM
IC50 (K562): 386 nM
IC50 (SF-539): 122 nM
IC50 (RH-1): 6.73 nM
IC50 (EW-16): 1.91 nM
IC50 (A388): 28.5 nM
IC50 (LS-513): > 1020 nM
IC50 (LB373-MEL-D): 345 nM
IC50 (CCRF-CEM): 24.5 nM
IC50 (NCI-H226): 417 nM
IC50 (SK-LMS-1): 53.2 nM
IC50 (ALL-PO): 65 nM
IC50 (P30-OHK): 57.6 nM
IC50 (LB996-RCC): 78.5 nM
IC50 (COLO-829): > 1020 nM
IC50 (TE-5): 37.5 nM
